Measured values reported in patent US20260263555A1, “ANNEXIN A1 DELAYED DOSING” (Reso Ther Pharma A/S, priority 2023, published 2026).
Entries after “also recorded” stand apart in the source; their conditions may differ. No end group written: not given here.

How the values were obtained:
[1] = tested on: rat model of acute myocardial infarction; assay: Delayed Annexin A1 peptide dosing in a rat model of acute myocardial infarction (30 minutes ischemia, 24 hours reperfusion; Evans blue/TTC infarct size); type: in vivo, Sprague Dawley rats; details: vs vehicle
Procedure: Myocardial infarction was induced by 30 minutes ischemia via obstruction of coronary perfusion by occlusion of the left coronary artery followed by 24 hours reperfusion. Sprague Dawley rats were treated by administration with Peptide 1 (30 ug/kg) three times with treatment initiation either at the time of reperfusion (T0 h, T3 h, T6 h) (Group 1), or with a delayed treatment initiation starting either at 1 hour post establishment of reperfusion (T1 h, T4 h, T7 h) (Group 2), or at 2 hours post establishment of reperfusion (T2 h, T5 h, T8 h) (Group 3).
At the end of 24 hours reperfusion period, the left coronary artery was reoccluded and Evans blue dye solution injected. Hearts were excised from the rat and stored at −20° C. before being sliced into 1 mm thick transverse sections. Heart sections were incubated with triphenyltetrazolium chloride (TTC, 1%) at 37° C. for 30 minutes to demarcate the viable and nonviable myocardium within the risk zone. Area at risk and infarcted area were determined using image software.

[2] = tested on: recruitment of neutrophils to the site of injury/inflammation; details: models of myocardial I/R, mesentery I/R, glycogen peritonitis and IL1 air pouch; cited from earlier work

| Substance | infarct size ([1]; Group 1: 30 ug/kg three times (T0 h, T3 h, T6 h), first dosage at establishment of reperfusion) | infarct size ([1]; Group 2: 30 ug/kg three times (T1 h, T4 h, T7 h), first dosage 1 hour post establishment of reperfusion) | infarct size ([1]; Group 3: 30 ug/kg three times (T2 h, T5 h, T8 h), first dosage 2 hours post establishment of reperfusion) | recruitment of neutrophils to the site of injury/inflammation [2] |
| --- | --- | --- | --- | --- |
| AMVSEFLKQAWFIENEEQEYVQTLKSSKGGPGSAVSPYPTFNPSSDV (AMVSEFLKQAWFIENEEQEYVQTLKSSKGGPGSAVSPYPTFNPSSDV-NH2; ends and bridges not checked) [Peptide 1] | significantly reduced infarct size | reduced infarct size to a similar degree; also recorded: significantly reduced infarct size | reduced infarct size to a similar degree; also recorded: significantly reduced infarct size |  |
| Ac2-26: Annexin A1 peptide which mimics the 2nd to the 26th amino acids of the 54-amino acid N-terminal region (Ac-AMVSEFLKQAWFIENEEQEYVQTVK; UniProt P04083 2-26, looked up, fragment) |  |  |  | significantly reduce the recruitment of neutrophils |
